Data: the supplement of paper PMC10307832

Tests used:
Test in all cases: relative viability (nuclei count vs DMSO), 5 days (fraction); higher = more cells survive
ChaGo-K-1 = test system: ChaGo-K-1
In short: (§1)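 Lung cancer cell lines in 1536-well plates got either a single drug or a fixed anchor-drug dose together with five library-drug doses (not always all listed) in √10 steps, by pin tool, on the day after seeding. Nuclei were counted after 5 days, and relative viability is the treated-to-vehicle ratio of nuclei counts. Values are medians of duplicate plates.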

NCI-H1944 = test system: NCI-H1944
In short: as §1

LU99A = test system: LU99A
In short: as §1

UMC-11 = test system: UMC-11
In short: as §1

RERF-LC-KJ = test system: RERF-LC-KJ
In short: as §1

NCI-H1651 = test system: NCI-H1651
In short: as §1

NCI-H2405 = test system: NCI-H2405
In short: as §1

LC-2-ad = test system: LC-2-ad
In short: as §1

NCI-H3122 = test system: NCI-H3122
In short: as §1

HCC-78 = test system: HCC-78
In short: as §1

PC-3 [JPC-3] = test system: PC-3 [JPC-3]
In short: as §1

NCI-H2170 = test system: NCI-H2170
In short: as §1

SMILES: O=C(O)c1ccc(-c2c[nH]c3ncc(-c4ccccc4)cc23)cc1C1CCCC1 + N=C(N)NC(=N)NCCc1ccccc1 [Phenformin] (partner 250 µM)
- relative viability (ChaGo-K-1; first compound 0.1265 µM): 0.541
- relative viability (ChaGo-K-1; first compound 0.4 µM): 0.452
- relative viability (ChaGo-K-1; first compound 1.265 µM): 0.507
- relative viability (NCI-H1944; first compound 0.04 µM): 0.191
- relative viability (NCI-H1944; first compound 0.1265 µM): 0.214
- relative viability (NCI-H1944; first compound 0.4 µM): 0.194
- relative viability (NCI-H1944; first compound 1.265 µM): 0.172
- relative viability (LU99A; first compound 0.04 µM): 0.961
- relative viability (LU99A; first compound 0.1265 µM): 0.784
- relative viability (LU99A; first compound 0.4 µM): 0.865
- relative viability (LU99A; first compound 1.265 µM): 0.606
- relative viability (UMC-11; first compound 0.04 µM): 0.331
- relative viability (UMC-11; first compound 0.1265 µM): 0.324
- relative viability (UMC-11; first compound 0.4 µM): 0.306
- relative viability (UMC-11; first compound 1.265 µM): 0.265
- relative viability (RERF-LC-KJ; first compound 0.04 µM): 0.432
- relative viability (RERF-LC-KJ; first compound 0.1265 µM): 0.456
- relative viability (RERF-LC-KJ; first compound 0.4 µM): 0.389
- relative viability (RERF-LC-KJ; first compound 1.265 µM): 0.369
- relative viability (NCI-H1651; first compound 0.04 µM): 0.349
- relative viability (NCI-H1651; first compound 0.1265 µM): 0.328
- relative viability (NCI-H1651; first compound 0.4 µM): 0.278
- relative viability (NCI-H1651; first compound 1.265 µM): 0.189
- relative viability (NCI-H2405; first compound 0.04 µM): 0.445
- relative viability (NCI-H2405; first compound 0.1265 µM): 0.442
- relative viability (NCI-H2405; first compound 0.4 µM): 0.382
- relative viability (NCI-H2405; first compound 1.265 µM): 0.383
- relative viability (LC-2-ad; first compound 0.04 µM): 0.584
- relative viability (LC-2-ad; first compound 0.1265 µM): 0.634
- relative viability (LC-2-ad; first compound 0.4 µM): 0.536
- relative viability (LC-2-ad; first compound 1.265 µM): 0.494
- relative viability (NCI-H3122; first compound 0.04 µM): 0.355
- relative viability (NCI-H3122; first compound 0.1265 µM): 0.399
- relative viability (NCI-H3122; first compound 0.4 µM): 0.394
- relative viability (NCI-H3122; first compound 1.265 µM): 0.337
- relative viability (HCC-78; first compound 0.1265 µM): 0.907
- relative viability (HCC-78; first compound 0.4 µM): 0.828
- relative viability (HCC-78; first compound 1.265 µM): 0.683
- relative viability (PC-3 [JPC-3]; first compound 0.04 µM): 0.475
- relative viability (PC-3 [JPC-3]; first compound 0.1265 µM): 0.501
- relative viability (PC-3 [JPC-3]; first compound 0.4 µM): 0.468
- relative viability (PC-3 [JPC-3]; first compound 1.265 µM): 0.436
- relative viability (NCI-H2170; first compound 0.04 µM): 0.434
- relative viability (NCI-H2170; first compound 0.1265 µM): 0.413
- relative viability (NCI-H2170; first compound 0.4 µM): 0.459
- relative viability (NCI-H2170; first compound 1.265 µM): 0.362
